# According to US20260109731A1, “NE[…] USE THEREOF” (HUNAN MINGRUI PHARMACEUTICAL CO., LTD., priority 2023, published 2026):
# Where “and” joins values, the source holds several entries; their conditions need not be identical. Equal values may be shown once. Read-outs that look alike come from different tables or passages of the source.
# Key:
# [1] = Pharmacokinetic analysis of oral administration to male rats; type: in vivo; conditions: oral gavage 12 mg/kg; for Blood drug concentration: individual rats 1-7
# Source text: Male SD rats (body weight: 230 g to 250 g) were purchased from BEIJING HFK BIOSCIENCE CO., LTD.
# [2] = In vitro phase I metabolic stability in male SD rat hepatic microsomes; type: in vitro ADME; conditions: male SD rat hepatic microsomes
# Protocol: Phase I metabolic stability kit (purchased from HUIZHI HEYUAN BIOTECHNOLOGY (BEIJING) CO., LTD), with the following components of the product:
# Positive substrate testosterone solution (10 mM): diluted with acetonitrile to prepare a 200 μM solution for later use; stop solution & internal standard (testosterone-D3): dissolved with acetonitrile to prepare a 5 ng/mL solution for later use.
# • 1) all components of the kit were thawed in an ice bath and placed on ice for later use; • 2) an incubation system (taking 200 μL system as an example) was prepared:
# • 3) 160 μL of pre-incubation solution B was added into the centrifuge tube containing 40 μL of pre-incubation solution A, uniform mixing was performed by pipetting three times, and the resulting mixture was immediately placed in a water bath at 37° C. for incubation and timing was started; • 4) at predetermined incubation time points (0, 5, 10, 15, 30, 45, 60 minutes), the incubation solution was quantitatively taken out, and 200 μL of stop solution (5 ng/mL testosterone-D3 in acetonitrile, pre-chilled at 4° C.) was added to terminate the reaction (stop solution volume: incubation system volume=1:1). Experimental samples were prepared in triplicate at each time point.
# To verify the validity of the experiment, a positive control group was established concurrently in the whole experiment to evaluate whether the incubation system functioned properly, with the preparation method as follows: the compound to be tested was replaced with the positive substrate testosterone (200 μM in acetonitrile) from the phase I metabolic stability kit, and the other components of the incubation system and experimental method were the same as those of the experimental group.
# The ratio of the chromatographic peak area of the compound to be tested to the chromatographic peak area of the testosterone-D3 (internal standard) was used as the calculated data. By taking the peak area ratio at time zero of the test compound as 100%, the remaining percentages were calculated by comparing the peak area ratio at each time point with the peak area ratio at time zero, and the natural logarithms of the remaining percentages of the substrate at each time point are then subjected to linear regression against the incubation times to obtain the slope k. Therefore, the in vitro metabolic half-life (T1/2) and intrinsic clearance (CLint) were calculated using the following formulas: […]
# [3] = Pharmacokinetic analysis of tail vein administration in mice; conditions: female, ICR, mouse, 5 mg/kg
# Protocol: Female ICR mice (body weight: 20 g to 22 g) were purchased from BEIJING HFK BIOSCIENCE CO., LTD.
# The animals were sacrificed at blood collection time points (5 min, 1 h and 8 h) for brain tissue collection, and the collected brain tissues were stored at −80° C. for later testing.
# 100 μL of plasma sample, 10 μL of internal standard solution (100 ng/mL testosterone D-3 solution), and 310 μL of acetonitrile were accurately measured, uniformly mixed by vortexing, and centrifuged (14000 rpm, 4° C.), and a resulting supernatant was taken to obtain the plasma sample.
# About 100 mg of brain tissue sample was taken, and accurately weighed, 100 μL of water and 400 μL acetonitrile were accurately added thereto, and a resulting mixture was subjected to homogenization. 100 μL of brain tissue homogenate, 10 μL of internal standard solution (100 ng/mL testosterone D-3 solution), and 310 μL of acetonitrile were accurately measured, uniformly mixed by vortexing, and centrifuged (14000 rpm, 4° C.), and a resulting supernatant was taken to obtain the brain tissue sample.
# 100 μL of blank plasma sample, 10 μL of mixed standard solution, 10 μL of internal standard solution (100 ng/mL testosterone D-3 solution), and 300 μL of acetonitrile were accurately measured, uniformly mixed by vortexing, and centrifuged (14000 rpm, 4° C.), and a resulting supernatant was taken to obtain the plasma matrix standard solution.
# About 100 mg of blank brain tissue sample was taken, and accurately weighed, 100 μL of water and 400 μL acetonitrile were accurately added thereto, and a resulting mixture was subjected to homogenization using a homogenizer. 100 μL of brain tissue homogenate, 10 μL of mixed standard solution, 10 μL of internal standard solution (100 ng/mL testosterone D-3 solution) and 300 μL of acetonitrile were accurately measured, uniformly mixed by vortexing, and centrifuged (14000 rpm, 4° C.), and a resulting supernatant was taken to obtain the Brain tissue matrix standard solution.
# The UPLC-MS/MS method with testosterone D-3 as the internal standard was used to perform analysis and determination by the standard curve method.
smiles,measurement,setting,value
CC(=O)[C@H]1CC[C@H]2[C@@H]3CC[C@H]4C[C@H](O[N+](=O)[O-])CC[C@]4(C)[C@H]3CC[C@]12C [Compound 1],Blood drug concentration,"[1]; male SD rats, 0.5 h, 12 mg/kg",4.1 ng/mL and 5.7 ng/mL and 16.2 ng/mL and 8.7 ng/mL and 8.3 ng/mL and 8.1 ng/mL and 8.4 ng/mL
same,Blood drug concentration,"[1]; male SD rats, 1 h, 12 mg/kg",14.1 ng/mL and 18.9 ng/mL and 35.9 ng/mL and 31.5 ng/mL and 22.3 ng/mL and 23.8 ng/mL and 50.6 ng/mL
same,Blood drug concentration,"[1]; male SD rats, 2 h, 12 mg/kg",38.2 ng/mL and 85.8 ng/mL and 132.2 ng/mL and 88.8 ng/mL and 111.4 ng/mL and 123 ng/mL and 251.1 ng/mL
same,Blood drug concentration,"[1]; male SD rats, 3 h, 12 mg/kg",71.9 ng/mL and 121.8 ng/mL and 288.6 ng/mL and 243.6 ng/mL and 103.9 ng/mL and 130.9 ng/mL and 616.7 ng/mL
same,Blood drug concentration,"[1]; male SD rats, 4 h, 12 mg/kg",95.1 ng/mL and 147 ng/mL and 279.6 ng/mL and 252.2 ng/mL and 270.9 ng/mL and 343.8 ng/mL and 318.5 ng/mL
same,Blood drug concentration,"[1]; male SD rats, 5 h, 12 mg/kg",250.4 ng/mL and 142.4 ng/mL and 252.4 ng/mL and 284.1 ng/mL and 262.5 ng/mL and 410.7 ng/mL and 582.4 ng/mL
same,Blood drug concentration,"[1]; male SD rats, 6 h, 12 mg/kg",259.8 ng/mL and 263.9 ng/mL and 161.2 ng/mL and 260.7 ng/mL and 287.5 ng/mL and 409.8 ng/mL and 687.1 ng/mL
same,Blood drug concentration,"[1]; male SD rats, 8 h, 12 mg/kg",121.7 ng/mL and 276.1 ng/mL and 383.6 ng/mL and 523.1 ng/mL and 496.4 ng/mL and 78.9 ng/mL and 556.5 ng/mL
same,Blood drug concentration,"[1]; male SD rats, 10 h, 12 mg/kg",167.3 ng/mL and 1144.3 ng/mL and 424.6 ng/mL and 914.9 ng/mL and 382.7 ng/mL and 196.1 ng/mL and 396.3 ng/mL
same,Blood drug concentration,"[1]; male SD rats, 12 h, 12 mg/kg",513.5 ng/mL and 873.9 ng/mL and 343.7 ng/mL and 730.7 ng/mL and 234.9 ng/mL and 303.8 ng/mL and 285.4 ng/mL
same,Blood drug concentration,"[1]; male SD rats, 18 h, 12 mg/kg",68.5 ng/mL and 110.5 ng/mL and 196.7 ng/mL and 97 ng/mL and 83.3 ng/mL and 73.4 ng/mL and 134.5 ng/mL
same,Blood drug concentration,"[1]; male SD rats, 24 h, 12 mg/kg",13.7 ng/mL and 68.5 ng/mL and 61.6 ng/mL and 20.7 ng/mL and 27.6 ng/mL and 13.8 ng/mL and 133.4 ng/mL
same,Tmax,"[1]; male SD rats, 12 mg/kg",9.7 h
same,concentration at 0.5 h,"[1]; male, SD, rat, plasma, po, 12 mg/kg, 0.5 h, mean of 7 rats, read-out: Blood drug concentration, Mean value",8.5 ng/mL
same,concentration at 1 h,"[1]; male, SD, rat, plasma, po, 12 mg/kg, 1 h, mean of 7 rats, read-out: Blood drug concentration, Mean value",28.2 ng/mL
same,concentration at 2 h,"[1]; male, SD, rat, plasma, po, 12 mg/kg, 2 h, mean of 7 rats, read-out: Blood drug concentration, Mean value",119 ng/mL
same,concentration at 3 h,"[1]; male, SD, rat, plasma, po, 12 mg/kg, 3 h, mean of 7 rats, read-out: Blood drug concentration, Mean value",225 ng/mL
same,concentration at 4 h,"[1]; male, SD, rat, plasma, po, 12 mg/kg, 4 h, mean of 7 rats, read-out: Blood drug concentration, Mean value",244 ng/mL
same,concentration at 5 h,"[1]; male, SD, rat, plasma, po, 12 mg/kg, 5 h, mean of 7 rats, read-out: Blood drug concentration, Mean value",312 ng/mL
same,concentration at 6 h,"[1]; male, SD, rat, plasma, po, 12 mg/kg, 6 h, mean of 7 rats, read-out: Blood drug concentration, Mean value",333 ng/mL
same,concentration at 8 h,"[1]; male, SD, rat, plasma, po, 12 mg/kg, 8 h, mean of 7 rats, read-out: Blood drug concentration, Mean value",348 ng/mL
same,concentration at 10 h,"[1]; male, SD, rat, plasma, po, 12 mg/kg, 10 h, mean of 7 rats, read-out: Blood drug concentration, Mean value",518 ng/mL
same,concentration at 12 h,"[1]; male, SD, rat, plasma, po, 12 mg/kg, 12 h, mean of 7 rats, read-out: Blood drug concentration, Mean value",469 ng/mL
same,concentration at 18 h,"[1]; male, SD, rat, plasma, po, 12 mg/kg, 18 h, mean of 7 rats, read-out: Blood drug concentration, Mean value",109 ng/mL
same,concentration at 24 h,"[1]; male, SD, rat, plasma, po, 12 mg/kg, 24 h, mean of 7 rats, read-out: Blood drug concentration, Mean value",48.5 ng/mL
same,Tmax,"[1]; male, SD, rat, plasma, po, 12 mg/kg, read-out: Tmax",~10 h
same,AUC(0-inf),"[1]; rat, plasma, male SD rats",6220 ng·h/mL
same,AUC(0-t),"[1]; rat, plasma, male SD rats",5830 ng·h/mL
same,Cmax,"[1]; rat, plasma, male SD rats",649 ng/mL
same,half-life,"[1]; rat, plasma, male SD rats",4.5 h
same,half-life,"[2]; liver microsomes, NADPH system, 37° C., read-out: T1/2 (in vitro metabolic half-life)",1.56 h
same,microsomal CLint,"[2]; liver microsomes, read-out: intrinsic clearance",14.8 µL/min/mg
same,In vitro CLint,[2]; 37° C.,14.82 μL/min/mg protein
same,k (slope of ln remaining percentage against incubation time),[2]; 37° C.,−0.0074
same,concentration at 5 min,"[3]; brain, intravenous",1140 ng/g
same,concentration at 1 h,"[3]; brain, intravenous",652 ng/g
same,concentration at 8 h,"[3]; brain, intravenous",31 ng/g
same,Kp at 5 min,"[3]; brain/plasma, intravenous",0.65
same,Kp at 1 h,"[3]; brain/plasma, intravenous",7.58
same,Kp at 8 h,"[3]; brain/plasma, intravenous",2.27
same,clearance,"[3]; plasma, iv",197 mL/min/kg
same,half-life,"[3]; plasma, iv",0.84 h
